In one series the test system is EBOV (Mayinga). Nature of the series: microbe, parasite or virus in culture. The series is classed as cell-based, Ebola virus. The following applies: for EC50: Zaire ebolavirus, Vero.
Series [1] deals with MARV (full-length glycoprotein, VSV pseudotype). As to the kind of experiment: microbe, parasite or virus in culture. Type of series: cell-based, Marburg marburgvirus. The following applies: Vesicular stomatitis virus, Vero, 24 h, read-out: EC50 Pseudotype Assays MARV.
Series [2] is described as follows: in vitro. The conditions noted are these: African green monkey.
A short description of series [3]: in vitro. The conditions noted are these: African green monkey, Cytotox CC50.
Series [4] concerns BDBV (mucin-deleted glycoprotein, VSV pseudotype). Nature of the series: microbe, parasite or virus in culture. Type of series: cell-based, Bundibugyo ebolavirus. The conditions noted are these: Vesicular stomatitis virus, Vero, 24 h, read-out: EC50 Pseudotype Assays BDBV.
Series [5] relates to EBOV (mucin-deleted glycoprotein, VSV pseudotype). As to the kind of experiment: microbe, parasite or virus in culture. The following applies: Zaire ebolavirus, Vero, 24 h, read-out: EC50 Pseudotype Assays EBOV. Type of series: cell-based, Zaire ebolavirus.
For series [6], the system named is SUDV (glycoprotein, VSV pseudotype). As to the kind of experiment: microbe, parasite or virus in culture. Type of series: cell-based, Sudan ebolavirus. The following applies: Vesicular stomatitis virus, Vero, 24 h, read-out: EC50 Pseudotype Assays SUDV.
In series [7] the test system is EBOV_FL: full-length Ebola Zaire GP (VSV pseudotype). As to the kind of experiment: microbe, parasite or virus in culture. The series is classed as cell-based, Zaire ebolavirus. The conditions noted are these: Zaire ebolavirus, Vero, 24 h, read-out: EC50 Pseudotype Assays EBOV_FL.
The subject of series [8] is VSV (native full-length glycoprotein). As to the kind of experiment: microbe, parasite or virus in culture. Type of series: cell-based. The conditions noted are these: Vesicular stomatitis virus, Vero, read-out: EC50 Pseudotype Assays VSV.
For series [9] the following is noted: microsomes, 1 h.
The conditions of series [10]: microsomes, 1 h. The source holds these as a separate data set.
The conditions of series [11]: microsomes, 1 h. This is another data set of the same source.
For series [12] the following is noted: microsomes, 1 h. This is another data set of the same source.
In series [13] the test system is Ebola Zaire. Nature of the series: microbe, parasite or virus in culture. The following applies: Zaire ebolavirus, read-out: Ebola Zaire EC90.
Series [14] deals with Sudan Gulu. As to the kind of experiment: organism not typed. The following applies: HeLa, read-out: Sudan Gulu EC50.
In series [15] the test system is Sudan Gulu.
Series [16] deals with Ebola Zaire. Nature of the series: microbe, parasite or virus in culture. The conditions noted are these: Zaire ebolavirus, HeLa, read-out: Ebola Zaire EC50.
Series [17] deals with Ebola Zaire.
Series [18] deals with Ebola Zaire. As to the kind of experiment: microbe, parasite or virus in culture. The following applies: Zaire ebolavirus, read-out: Ebola Zaire EC50.
For series [19], the system named is Ebola Zaire. This is another data set of the same source.

Read-outs that look alike come from different tables or passages of the source.

What is called EC50 is the midpoint of the concentration-response curve. Regarding `C[C@@]12CC3CC(C(=O)N[C@H]4CC[C@@H](N)CC4)(C1)C[C@](c1ccccc1)(C3)C2` [Example C2], the “SI50 (CC50/EC50)” value with EBOV (Mayinga) is listed as 8. Also, the half-maximal effective concentration (EC50) in the series with EBOV (Mayinga) came out at 2670 nM; in series [1], 8720 nM; in series [4] it was 252 nM; in series [5], 135 nM; in [6], 767 nM; in series [7], 209 nM. The CC50 was 21400 nM in the series “in vitro [2]” and 25500 nM in the series “in vitro [3]”.

Consider `CC12CC3CC(C(=O)N[C@H]4CC[C@H](CN)CC4)(C1)CC(c1ccccc1)(C3)C2` (mixture of isomers) [Example A3], for which the EC50 was 7000 nM in [1]; more than 10000 nM in series [8]; 95 nM in series [4]; 26 nM in [5]; 30 nM in [6]; 40 nM in [7]. The CC50 in the series “in vitro [3]” came out at 8000 nM.

As for `CC12CC3CC(C(=O)N[C@H]4CN5CCC4CC5)(C1)CC(c1ccccc1)(C3)C2` (mixture of isomers) [Example A58], the EC50 was 282 nM in [1]; more than 10000 nM in series [8]; 198 nM in [4]; 74 nM in [5]; 383 nM in [6]; 70 nM in series [7]. The CC50 in the series “in vitro [3]” came to 7200 nM.

Regarding `C[C@H]1C[C@@H](NC(=O)C23CC4CC(C)(C2)CC(c2ccccc2)(C4)C3)CCN1` (mixture of isomers) [Example A4], the EC50 in [1] is 7100 nM; in [8] it was more than 10000 nM; in series [4], 198 nM; in series [5] it was 22 nM; in [6] it was 730 nM; in series [7], 25 nM. In the series “in vitro [3]”, this compound had a CC50 of 11700 nM.

Take `CC12CC3CC(C(=O)N[C@@H]4CCNC[C@H]4F)(C1)CC(c1ccccc1)(C3)C2` (mixture of isomers) [Example A5]: the EC50 in series [1] was 4880 nM; in series [8], more than 10000 nM; in [4], 190 nM; in [5] it was 50 nM; in [6] it was 410 nM; in series [7], 30 nM. This compound also yielded a CC50 in “in vitro [3]” of 11300 nM.

In the case of `CC1(C)CN(C(=O)C23CC4C[C@@](C)(C2)C[C@](c2ccccc2)(C4)C3)CC[C@@H]1N` [Example B13], in [9], the “Liver Microsome Stability % Remaining after 60 Minutes, Monkey” value stood at 32%. This compound also gave a CC50 in “in vitro [3]” of 11300 nM. Besides, the EC50 in series [4] stood at 71 nM; in [5] it was 14 nM; in series [6] it was 40 nM. Besides, the “Liver Microsome Stability % Remaining after 60 Minutes, Human” value in [10] is listed as 85%. Moreover, the “Liver Microsome Stability % Remaining after 60 Minutes, Mouse” value in series [11] turned out to be 51%. Besides, the “Liver Microsome Stability % Remaining after 60 Minutes, Guinea Pig” value in series [12] is 50%.

In the case of `CC12CC3CC(C(=O)N4CCC5(CC4)CNC5)(C1)CC(c1ccccc1)(C3)C2` (racemic) [Example A48], the “Liver Microsome Stability % Remaining after 60 Minutes, Monkey” value in series [9] worked out at 22%. This compound gave a CC50 in “in vitro [3]” of 13700 nM. The EC50 in series [4] came out at 35 nM; in series [5], 14 nM; in series [6] it was 35 nM; in series [7], 140 nM. Also, the “Liver Microsome Stability % Remaining after 60 Minutes, Human” value in [10] turned out to be 46%. Also, the “Liver Microsome Stability % Remaining after 60 Minutes, Mouse” value in series [11] worked out at 76%. Further, the “Liver Microsome Stability % Remaining after 60 Minutes, Guinea Pig” value in [12] was 87%.

For orientation: EC90 means the concentration needed for an effect of 90%. Regarding `C[C@]12CC3CC(C(=O)N[C@H]4CC[C@H](CN)CC4)(C1)C[C@@](c1ccccc1)(C3)C2` [Example B3], in the series on Ebola Zaire [13], the EC90 worked out at 600 nM. In addition, the EC50 in the series with Sudan Gulu [14] worked out at 120 nM; in series [1], 3600 nM; in the series with Ebola Zaire [16], 570 nM; in series [4], 114 nM; in series [5], 9 nM; in the series with Ebola Zaire [18], 430 nM. Further, the EC50 in series [6] came to 230 nM; in series [7], 10 nM. Further, the “Sudan Gulu SI (CC50/EC50)” value in the series on Sudan Gulu [15] is 119. In addition, the “Liver Microsome Stability % Remaining after 60 Minutes, Monkey” value in [9] stood at 61%. The compound further showed a CC50 in “in vitro [3]” of 6110 nM. For the same compound, the “Liver Microsome Stability % Remaining after 60 Minutes, Human” value in series [10] turned out to be 83%. For the same compound, the “Ebola Zaire SI (CC50/EC90)” value with Ebola Zaire [17] turned out to be 23. Further, in series [11], the “Liver Microsome Stability % Remaining after 60 Minutes, Mouse” value is reported as 27%.

`CC12CC3CC(C(=O)N4CCC(N)C(C)(C)C4)(C1)CC(c1ccccc1)(C3)C2` (racemic) [Example A35]: the EC50 is 140 nM with Sudan Gulu [14]; 1140 nM in the series on Ebola Zaire [16]; 71 nM in [4]; 10 nM in series [5]; 80 nM in series [6]; 20 nM in series [7]. Also, in the series with Sudan Gulu [15], the “Sudan Gulu SI (CC50/EC50)” value was 136. Besides, in series [9], the “Liver Microsome Stability % Remaining after 60 Minutes, Monkey” value worked out at 22%. Also, the CC50 in “in vitro [3]” is 10200 nM. In addition, the “Liver Microsome Stability % Remaining after 60 Minutes, Human” value in series [10] is listed as 97%. In addition, in the series with Ebola Zaire [19], the “Ebola Zaire SI (CC50/EC50)” value was found to be 29. Also, the “Liver Microsome Stability % Remaining after 60 Minutes, Mouse” value in series [11] is on record as 42%. In addition, the “Liver Microsome Stability % Remaining after 60 Minutes, Guinea Pig” value in [12] was 45%.

Consider `CC12CC3CC(C(=O)NC4CCNCC4)(C1)CC(c1ccccc1)(C3)C2` (racemic) [Example A1], for which the EC50 in [1] is 2800 nM; in series [8] it was more than 10000 nM; in series [4] it was 160 nM; in [5], 42 nM; in series [6], 380 nM; in series [7] it was 40 nM. For the same compound, the CC50 in “in vitro [3]” was 16100 nM.

With `C[C@]12CC3CC(C(=O)N[C@H]4CCNC[C@@H]4F)(C1)C[C@@](c1ccccc1)(C3)C2` [Example B6], the EC50 was more than 3000 nM in series [1]; 193 nM in series [4]; 36 nM in series [5]; 320 nM in series [6]; 20 nM in series [7]. Besides, the CC50 in “in vitro [3]” worked out at 12200 nM.

For `C[C@]12CC3CC(C(=O)N[C@@H]4CCNC[C@H]4F)(C1)C[C@@](c1ccccc1)(C3)C2` [Example B5], the EC50 is more than 3000 nM in series [1]; 174 nM in series [4]; 19 nM in [5]; 240 nM in [6]; 20 nM in series [7]. The compound also had a CC50 in “in vitro [3]” of 11900 nM.

On to `CCC12CC3CC(C(=O)N[C@@H]4CCNC[C@@H]4F)(C1)CC(c1ccccc1)(C3)C2` (mixture of isomers) [Example A23], for which the EC50 in series [1] amounted to 3510 nM; in series [4], 306 nM; in series [5], 41 nM; in series [6], 500 nM; in series [7], 20 nM. In addition, in the series “in vitro [3]”, the CC50 came out at 7800 nM.

For the compound `C[C@]12CC3CC(C(=O)N[C@H]4CN5CCC4CC5)(C1)C[C@@](c1ccccc1)(C3)C2` [Example B58], the “SI50 (CC50/EC50)” value with EBOV (Mayinga) was found to be 64. The EC50 is 400 nM in the series with EBOV (Mayinga); 150 nM in the series on Sudan Gulu [14]; 1680 nM in [1]; 900 nM with Ebola Zaire [16]; 230 nM in [4]; 36 nM in series [5]. Besides, the half-maximal effective concentration (EC50) in the series on Ebola Zaire [18] is 400 nM; in series [6], 220 nM. In addition, the EC90 with Ebola Zaire [13] was 4400 nM. The “Sudan Gulu SI (CC50/EC50)” value in the series with Sudan Gulu [15] is recorded as 157. Moreover, the CC50 worked out at 25700 nM in the series “in vitro [2]” and 8000 nM in “in vitro [3]”. In the series with Ebola Zaire [17], the “Ebola Zaire SI (CC50/EC90)” value turned out to be 6.5.

Turning to `N[C@H]1CC[C@@H](NC(=O)C23CC4CC(CF)(C2)CC(c2ccccc2)(C4)C3)CC1` (mixture of isomers) [Example A28], the EC50 in series [1] was more than 10000 nM; in series [4], 596 nM; in series [5], 62 nM; in series [6] it was 1540 nM; in series [7], 140 nM. This compound also came in with a CC50 in the series “in vitro [3]” of 32300 nM.

Turning to `CC12CC3CC(CN4CCC(N)CC4)(C1)CC(c1ccccc1)(C3)C2` (centres unmarked) [Example A69], the 50% effective concentration (EC50) in the series with Sudan Gulu [14] stood at 70 nM; in [1] it was 950 nM; with Ebola Zaire [16] it was 440 nM; in [4] it was 163 nM; in series [5] it was 321 nM; in series [6] it was 290 nM. For the same compound, the “Sudan Gulu SI (CC50/EC50)” value in the series with Sudan Gulu [15] is 58. The “Liver Microsome Stability % Remaining after 60 Minutes, Monkey” value in [9] is 68%. In addition, the CC50 in the series “in vitro [3]” came out at 2200 nM. For the same compound, in [10], the “Liver Microsome Stability % Remaining after 60 Minutes, Human” value turned out to be 98%. For the same compound, the “Ebola Zaire SI (CC50/EC50)” value with Ebola Zaire [19] is on record as 16. Further, in [11], the “Liver Microsome Stability % Remaining after 60 Minutes, Mouse” value came to 100%. Moreover, in series [12], the “Liver Microsome Stability % Remaining after 60 Minutes, Guinea Pig” value was 65%.

Source of the values: US11548893B2 (priority 2017, dated 2023).
